ChEMBL document CHEMBL3045429, “Exploration of antimicrobial potential of pyrazolo[3,4-b]pyridine scaffold bearing benzenesulfonamide and trifluoromethyl moieties” (2013)
In brackets after ≈: the same amount, converted by molar mass. Activity calls are given as the source filed them. No cut-off for these calls is given here.

Assays:
[1] = test system: Bacillus subtilis; assay: Antibacterial activity against Bacillus subtilis MTCC 121 assessed as growth inhibition after 24 hr by agar well diffusion method; format: functional; details: MTCC 121, 24 h
[2] = test system: Staphylococcus aureus; assay: Antibacterial activity against Staphylococcus aureus MTCC 96 assessed as growth inhibition at 4 mg/mL after 24 hr by agar well diffusion method; format: functional; details: MTCC 96, 24 h, read-out: DIZ
[3] = test system: Bacillus subtilis; assay: Antibacterial activity against Bacillus subtilis MTCC 121 assessed as growth inhibition at 4 mg/mL after 24 hr by agar well diffusion method; format: functional; details: MTCC 121, 24 h, read-out: DIZ
[4] = test system: Staphylococcus aureus; assay: Antibacterial activity against Staphylococcus aureus MTCC 96 assessed as growth inhibition after 24 hr by agar well diffusion method; format: functional; details: MTCC 96, 24 h
[5] = test system: Pseudomonas aeruginosa; assay: microbe, parasite or virus in culture; details: MTCC 741, 24 h, read-out: DIZ
Description: Antibacterial activity against Pseudomonas aeruginosa MTCC 741 assessed as growth inhibition at 4 mg/mL after 24 hr by agar well diffusion method

[6] = test system: Saccharomyces cerevisiae; assay: Antifungal activity against Saccharomyces cerevisiae MTCC 170 assessed as growth inhibition at 4 mg/mL after 24 hr by agar well diffusion method; format: functional; details: MTCC 170, 24 h, read-out: DIZ
[7] = test system: Candida albicans; assay: Antifungal activity against Candida albicans MTCC 227 assessed as growth inhibition after 24 hr by agar well diffusion method; format: functional; details: MTCC 227, 24 h
[8] = test system: Candida albicans; assay: Antifungal activity against Candida albicans MTCC 227 assessed as growth inhibition at 4 mg/mL after 24 hr by agar well diffusion method; format: functional; details: MTCC 227, 24 h, read-out: DIZ
[9] = test system: Escherichia coli; assay: Antibacterial activity against Escherichia coli MTCC 1652 assessed as growth inhibition at 4 mg/mL after 24 hr by agar well diffusion method; format: functional, organism-based
[10] = test system: Saccharomyces cerevisiae; assay: Antifungal activity against Saccharomyces cerevisiae MTCC 170 assessed as growth inhibition after 24 hr by agar well diffusion method; format: functional; details: MTCC 170, 24 h

Question: What does the source list for `O=C(O)c1cn(C2CC2)c2cc(N3CCNCC3)c(F)cc2c1=O` [CIPROFLOXACIN]?
Answer: MIC [1]: 5 µg/mL (≈ 15.1 µM); zone of inhibition at 4000 µg/mL [2]: 26.6 mm; zone of inhibition at 4000 µg/mL [3]: 24 mm; MIC [4]: 5 µg/mL (≈ 15.1 µM); zone of inhibition at 4000 µg/mL [5]: 22 mm

Question: With `Cc1ccc(-c2nn(-c3ccc(S(N)(=O)=O)cc3)c3nc(-c4ccc5ccccc5c4)cc(C(F)(F)F)c23)cc1` as the molecule, how does the zone of inhibition at 4000 µg/mL [6] read?
Answer: Its zone of inhibition at 4000 µg/mL is 15.6 mm.

Question: And the MIC [1]?
Answer: The MIC was 128 µg/mL (≈ 229 µM).

Question: And the MIC [7]?
Answer: The MIC was 32 µg/mL (≈ 57.3 µM).

Question: And the zone of inhibition at 4000 µg/mL [8]?
Answer: Its zone of inhibition at 4000 µg/mL is 18.3 mm.

Question: What about the zone of inhibition at 4000 µg/mL [2] of the same molecule?
Answer: The zone of inhibition at 4000 µg/mL was 15.6 mm.

Question: What about the zone of inhibition at 4000 µg/mL [3] of the same molecule?
Answer: The zone of inhibition at 4000 µg/mL was 15.6 mm.

Question: What about the MIC [4] of the same molecule?
Answer: The MIC was 128 µg/mL (≈ 229 µM).

Question: And the “growth inhibition (GI)” value [9]?
Answer: The value was “inactive”.

Question: And the MIC [10]?
Answer: The MIC was 32 µg/mL (≈ 57.3 µM).

Question: With `NS(=O)(=O)c1ccc(-n2nc(-c3ccccc3)c3c(C(F)(F)F)cc(C(F)(F)F)nc32)cc1` as the molecule, how does the zone of inhibition at 4000 µg/mL [6] read?
Answer: The zone of inhibition at 4000 µg/mL was 14.6 mm.

Question: What about the MIC [1] of the same molecule?
Answer: Its MIC is 32 µg/mL (≈ 65.8 µM).

Question: And the MIC [7]?
Answer: The MIC was 64 µg/mL (≈ 132 µM).

Question: What about the zone of inhibition at 4000 µg/mL [8] of the same molecule?
Answer: The zone of inhibition at 4000 µg/mL was 15.6 mm.

Question: What about the zone of inhibition at 4000 µg/mL [2] of the same molecule?
Answer: The zone of inhibition at 4000 µg/mL was 22.6 mm.

Question: What about the zone of inhibition at 4000 µg/mL [3] of the same molecule?
Answer: Its zone of inhibition at 4000 µg/mL is 21.6 mm.

Question: What about the MIC [4] of the same molecule?
Answer: The MIC was 32 µg/mL (≈ 65.8 µM).

Question: And the “growth inhibition (GI)” value [9]?
Answer: Its value is “inactive”.

Question: What about the MIC [10] of the same molecule?
Answer: The MIC was 128 µg/mL (≈ 263 µM).
